Reference: ChEMBL document CHEMBL4813986, “Multicomponent synthesis and anti-proliferative screening of biaryl triazole-containing cyclophanes” (Bioorg Med Chem Lett, 2021)
≈ marks a conversion by molar mass, not a printed value. Calls of active or inactive are those of the source. No cut-off for these calls is given here.

Key:
PC-3 [1] = assay: Antiproliferative activity against human PC-3 cells assessed as inhibition of cell growth at 50 uM relative to control; format: functional
DU-145 = assay: Antiproliferative activity against human DU-145 cells assessed as inhibition of cell growth at 50 uM relative to control; format: functional
MCF7 = assay: Antiproliferative activity against human MCF7 cells assessed as inhibition of cell growth at 50 uM relative to control; format: functional
[2] = Cytotoxicity against African green monkey COS7 cells assessed as inhibition of cell growth at 50 uM relative to control; format: cell-based; settings: chlorocebus aethiops, COS-7 cells
PC-3 [3] = assay: Antiproliferative activity against human PC-3 cells assessed as inhibition of cell growth; format: functional, cell-based
[4] = Aqueous solubility of the compound; format: physicochemical; settings: buffer
Bel-7402 = assay: Cytotoxicity against human Bel-7402 cells assessed as reduction in cell viability measured after 5 days by MTT assay; format: functional, cell-based

| IC50 (PC-3 [3]) [µM] | solubility [4] | Structure (SMILES) | inhibition at 50 µM (PC-3 [1]) [%] | inhibition at 50 µM (DU-145) [%] | inhibition at 50 µM (MCF7) [%] | inhibition at 50 µM [2] [%] | inhibition (DU-145) | IC50 (Bel-7402) [µg/mL] |
| --- | --- | --- | --- | --- | --- | --- | --- | --- |
| 13.9 |  | CCCCCCCCCCCCNC(=O)C1c2cccc(c2)-c2ccc(cc2)OCc2cn(nn2)CCOc2ccc(cc2)CC(=O)N1c1ccc(F)cc1 (stereo not given) | 68.3 | 93.1 | 82.4 | 35 |  |  |
|  |  | CCCCCCCCCCCCNC(=O)C1c2cccc(c2)-c2ccc(cc2)OCc2cn(nn2)CCCCOc2ccc(cc2)CC(=O)N1c1ccc(C(F)(F)F)cc1 (stereo not given) | 36.4 | 52.8 | 42.9 | 16.6 |  |  |
|  |  | O=C(NC1CCCCC1)C1c2cccc(c2)-c2ccc(cc2)OCc2cn(nn2)CCOc2ccc(cc2)CC(=O)N1c1ccc(F)cc1 (stereo not given) | 50.3 | 28.4 | 43.2 | 43.2 |  |  |
|  | Insoluble | CCCCCCCCCCCCNC(=O)C1c2cccc(c2)-c2ccc(cc2)OCc2cn(nn2)CCCOc2ccc(cc2)CC(=O)N1c1ccc(C(C)C)cc1 (stereo not given) | 30.1 | 21.2 | 31.8 | 9.9 |  |  |
|  |  | O=C(NC1CCCCC1)C1c2cccc(c2)-c2ccc(cc2)OCc2cn(nn2)CCCCCOc2ccc(cc2)CC(=O)N1c1ccc(C(F)(F)F)cc1 (stereo not given) | 46 | 48.8 | 53.3 | 45.4 |  |  |
| 13.8 |  | CC(C)c1ccc(N2C(=O)Cc3ccc(cc3)OCCCn3cc(nn3)COc3ccc(cc3)-c3cccc(c3)C2C(=O)NC2CCCCC2)cc1 (stereo not given) | 60.8 | 41.9 | 58.2 | 48 |  |  |
|  |  | O=C(NC1CCCCC1)C1c2cccc(c2)-c2ccc(cc2)OCc2cn(nn2)CCCCOc2ccc(cc2)CC(=O)N1c1ccc(C(F)(F)F)cc1 (stereo not given) | 48.5 | 39 | 57.1 | 38.1 |  |  |
|  |  | CC(C)(C)NC(=O)C1c2cccc(c2)-c2ccc(cc2)OCc2cn(nn2)CCCOc2ccc(cc2)CC(=O)N1Cc1ccccc1 (stereo not given) | 5.5 |  | 67.9 | 33.1 | inactive |  |
|  |  | O=C(NC1CCCCC1)C1c2cccc(c2)-c2ccc(cc2)OCc2cn(nn2)CCOc2ccc(cc2)CC(=O)N1c1ccc(C(F)(F)F)cc1 (stereo not given) | 46.9 | 37.1 | 45.8 | 37.7 |  |  |
| 9.7 |  | CC(C)c1ccc(N2C(=O)Cc3ccc(cc3)OCCCn3cc(nn3)COc3cccc(c3)C2C(=O)NC2CCCCC2)cc1 (stereo not given) |  |  |  |  |  |  |
|  |  | O=C(NC1CCCCC1)C1c2cccc(c2)-c2ccc(cc2)OCc2cn(nn2)CCOc2ccc(cc2)CC(=O)N1Cc1ccccc1 (stereo not given) | 11.6 | 11 | 15.2 | 9.9 |  |  |
| 4.6 |  | CC(C)c1ccc(N2C(=O)Cc3ccc(cc3)OCCn3cc(nn3)COc3ccc(cc3)-c3cccc(c3)C2C(=O)NC2CCCCC2)cc1 (stereo not given) | 90.2 | 93.8 | 81.8 | 37.5 |  |  |
|  |  | CC(C)(C)NC(=O)C1c2cccc(c2)-c2ccc(cc2)OCc2cn(nn2)CCOc2ccc(cc2)CC(=O)N1Cc1ccccc1 (stereo not given) | 48.3 | 25.5 | 44.6 | 37.8 |  |  |
|  |  | CCCCCCCCCCCCNC(=O)C1c2cccc(c2)-c2ccc(cc2)OCc2cn(nn2)CCCCCOc2ccc(cc2)CC(=O)N1c1ccc(C(F)(F)F)cc1 (stereo not given) | 22 |  | 24.9 | 10.2 | inactive |  |
|  |  | O=C(NC1CCCCC1)C1c2cccc(c2)-c2ccc(cc2)OCc2cn(nn2)CCCOc2ccc(cc2)CC(=O)N1c1ccc(C(F)(F)F)cc1 (stereo not given) | 35.5 | 20.1 | 60.9 | 30.9 |  |  |
|  |  | CC1=C[C@H]2O[C@@H]3C[C@H]4OC(=O)/C=C\C=C\[C@@H]5O[C@@H](O[C@H]5C)[C@H](O)/C(C)=C/C(=O)OC[C@@]2(CC1)[C@]4(C)[C@]31CO1 |  |  |  |  |  | 0.35 (≈ 0.662 µM) |
|  |  | CCCCCCCCCCCCNC(=O)C1c2cccc(c2)-c2ccc(cc2)OCc2cn(nn2)CCOc2ccc(cc2)CC(=O)N1c1ccc(C(F)(F)F)cc1 (stereo not given) | 45.8 | 19.7 | 41.7 | 33.6 |  |  |
|  |  | CCCCCCCCCCCCNC(=O)C1c2cccc(c2)-c2ccc(cc2)OCc2cn(nn2)CCOc2ccc(cc2)CC(=O)N1Cc1ccccc1 (stereo not given) | 25.8 | 10.4 | 26.4 | 28.2 |  |  |
|  | Insoluble | CCCCCCCCCCCCNC(=O)C1c2cccc(c2)-c2ccc(cc2)OCc2cn(nn2)CCOc2ccc(cc2)CC(=O)N1c1ccc(C(C)C)cc1 (stereo not given) | 25.4 | 51 | 39.2 | 25.6 |  |  |
|  |  | CCCCCCCCCCCCNC(=O)C1c2cccc(c2)-c2ccc(cc2)OCc2cn(nn2)CCCOc2ccc(cc2)CC(=O)N1c1ccc(C(F)(F)F)cc1 (stereo not given) | 15.3 | 9.8 | 45.6 | 20.4 |  |  |
| 31.5 |  | COc1cc([C@@H]2c3cc4c(cc3[C@@H](O[C@@H]3O[C@@H]5CO[C@@H](C)O[C@H]5[C@H](O)[C@H]3O)[C@H]3COC(=O)[C@H]23)OCO4)cc(OC)c1O [ETOPOSIDE] |  |  |  |  |  |  |
